Data reported in patent US12215123B2, “Cordycepin-based derivatized compound with anti-tumor effect” (NANJING TECH UNIVERSITY, priority 2022, dated 2025).
Where a name gives a salt, the structure may show the parent alone. Read-outs that look alike come from different tables or passages of the source.

Legend:
[1] = system: small cell lung cancer cell line H1048; assay: MTT proliferation, small cell lung cancer cell line H1048; assay type: cell-based; conditions: read-out: IC50 (μM) of compounds in small cell lung cancer cells, H1048
Experimental: (§1) The method for determining inhibitory activities of the compounds on the proliferation of tumor cells by an MTT method is as follows: a bottle of cells in a good state in an exponential growth phase is added with 0.25% trypsin digestive juice, the digestion makes adherent cells fall off, with 2 to 4×10^4 cells/mL, and a cell suspension is prepared. The cell suspension is inoculated on a 96-well plate, with 90 μL/well, and cultured in a constant-temperature CO2 incubator for 24 hours. The prepared compounds are added for testing, with 10 μL/well, and cultured for 72 hours. An MTT reagent is added into a 96-well plate, with 10 μL/well, and reacts in an incubator for 4 hours to absorb a supernatant, and then dimethyl sulfoxide is added, with 100 μL/well. After a crystal is dissolved, an absorbance of each well at a wavelength of 570 nm is measured by an enzyme-linked immunosorbent assay instrument, and a cell inhibition rate is calculated. An S curve is made with a compound concentration and a corresponding inhibition rate. Therefore, IC50 of a corresponding compound is obtained.
(§2) Anti-tumor dose-effect relationship curves of cordycepin and compounds 1, 2, 4, 5, 7, 8, 10, 12, 16, 18, 21, 23, 24, 35 and 38 in small cell lung cancer cell lines H1048, H446 and H69 were analyzed by an MTT experimental method.

[2] = system: small cell lung cancer cell line H69; assay: MTT proliferation, small cell lung cancer cell line H69; assay type: cell-based; conditions: read-out: IC50 (μM) of compounds in small cell lung cancer cells, H69
Experimental: as §1, §2

[3] = system: wild-type AB-line zebrafish; conditions: 3 dpf to 5 dpf, 35° C.; survival rate>90% and teratogenicity<20%
Experimental: The zebrafish model is a wild-type AB-line zebrafish from College of Biotechnology and Pharmaceutical Engineering, Nanjing Tech University, and is carried out by a natural mating reproduction method, with 30 zebrafish of 2 dpf in each experimental group. The zebrafish is fed in fish culture water at 28° C. (water quality:200 mg of instant sea salt and CaCO3 are added into 1 L of reverse osmosis water with a conductivity of 480 uS/cm to 510 uS/cm, a pH value of 6.9 to 7.2, and a hardness of 53.7 mg/L to 71.6 mg/L), and the feeding management meets the requirements of international AAALAC certification.
240 3 dpf wild-type AB-line zebrafish were randomly selected in an 8-well plate, with 30 zebrafish in each well, and 3 mL of fish culture water in each well, the cordycepin was diluted according to a maximum lethal dose, dissolved in DMSO, and added into each well according to a concentration gradient (the maximum lethal dose was diluted by 100 times, in which 8 concentration gradient values were taken for the experiment), and meanwhile, a normal control group, a solvent control group G (5% glucose) and a solvent control group D (DMSO) were set. During the experiment, the zebrafish in each group were cultured at 35° C., after the zebrafish were treated to be 5 dpf with a sample to be tested, lethal and developmental malformation conditions of the zebrafish in different doses were investigated respectively, and a maximum tolerance dose (MTD) of the sample to be tested to normal zebrafish was determined under a concentration when survival rate>90% and teratogenicity<20%.

[4] = system: gastric cancer cell line AGS; assay: MTT proliferation, gastric cancer cell line AGS; assay type: cell-based; conditions: read-out: IC50 (μM) in gastric cancer cells, AGS
Experimental: as §1
(§3) Anti-tumor dose-effect relationship curves of the cordycepin and 40 compounds prepared in gastric cancer cell lines AGS and BGC-823 were analyzed by an MTT experimental method.

[5] = system: gastric cancer cell line BGC-823; assay: MTT proliferation, gastric cancer cell line BGC-823; assay type: cell-based; conditions: read-out: IC50 (μM) in gastric cancer cells, BGC-823
Experimental: as §1, §3

[6] = system: small cell lung cancer cell line H446; assay: MTT proliferation, small cell lung cancer cell line H446; assay type: cell-based; conditions: for IC50: read-out: IC50 (μM) of compounds in small cell lung cancer cells, H446
Experimental: as §1, §2

B16-F10 melanoma cells = assay: Mouse transplanted melanoma model; assay type: in vivo, C57BL/6j nude mice; conditions: B16-F10 transplanted mice; for tumor volume: intragastric 500 ug/time/animal every other day, 24 days, blank 1760 mm^3
Experimental: The feeding of the mouse model in the drug evaluation follows that: mice are fed and treated in a laminar flow cabinet, with 5 nude mice in each cage, drinking water and feedstuffs are added once every 3 days, and paddings are replaced once a week; a number of mice kept in each cage is no more than 5, the mice in separate cages are kept in groups as far as possible, and the mice should not be kept in a single cage; the animal management must conform to the relevant national standards on animal feeding management, and the behavioral needs of animals should be concerned at the same time to avoid unnecessary stress; the normal physiological and behavioral needs of animals, such as defecation, urination, constant body temperature maintenance, normal activities, posture adjustment and reproduction are met; good ventilation and dry animals are kept; the animals can access to drinking water and food at will, and supplementation, replacement and cleaning operations are easily carried out; a solid and safe environment is provided to avoid accidents of animals, such as escaping or limb trapping in a gap; the animals are avoided from being damaged by sharp edges or protrusions; and the animals are not disturbed during observation.
A mouse transplanted melanoma model was established and a drug was evaluated. 2.5×10^5 B16-F10 melanoma cells were suspended in 100 μL of PBS to be inoculated into an outer side of thigh of left lower limb of C57BL/6j nude mice. One week later, when the transplanted tumor reached about 100 mm^3, the mice were randomly divided into ten groups, with 10 mice in each group, comprising a blank control group, a cordycepin group, a compound 13 group, a compound 14 group, a compound 17 group, a compound 19 group, a compound 22 group, a compound 26 group, a compound 29 group and a compound 34 group respectively. The blank control group was intragastrically administrated with a nutritional agent such as a corn steep liquor and DMSO as a solvent control every day for 24 consecutive days, and the compound groups were intragastrically administrated with corresponding compounds (500 ug/time/animal in all cases) every other day for 24 consecutive days. […] The mice were killed after the experiment, blood and corresponding tissue samples were collected, tumor bodies were immediately photographed and weighed, and some tumor tissues were fixed in a formalin solution to be further detected. Two vertical diameters (length and width) of the transplanted tumor were measured with a caliper every two days to calculate a size of the transplanted tumor, and a tumor value was calculated according to a formula: tumor volume (mm^3)=[…].

[7] = Homo sapiens, NCI-H1048, 72 h, MTT, 72 hours, H1048
[8] = Homo sapiens, MTT, 72 hours, BGC-823
[9] = Homo sapiens, NCI-H446, 72 h, MTT, 72 hours, H446

Compound | Maximum tolerance dose (MTD) in zebrafish model [3] [µM] | IC50 ([4]; MTT, 72 hours, AGS) [µM] | IC50 [5, 8] [µM] | further results
Nc1ncnc2c1ncn2[C@@H]1O[C@H](COP(=O)(O)O)CC1O (stereo partly shown) [Compound 2, (5-(6-amino-9H-purine-9-yl)-4-hydroxytetrahydrofuran-2-yl)dihydromethyl phosphate] | 845 | 142 | 209 | IC50 [1, 7]: 55.3 µM; IC50 ([2]; MTT, 72 hours, H69): 50.2 µM; IC50 [6, 9]: 76.8 µM
CC(C)C(=O)OCOP(=O)(COC[C@@H]1CC(O)[C@H](n2cnc3c(N)ncnc32)O1)OCOC(=O)C(C)C (stereo partly shown) [Compound 5] | 525 | 72.7 | 91.5 | IC50 [1, 7]: 40.9 µM; IC50 ([2]; MTT, 72 hours, H69): 53.4 µM; IC50 [6, 9]: 43.3 µM
CC(C)OC(=O)C(C)NP(=O)(COC[C@@H]1CC(O)[C@H](n2cnc3c(N)ncnc32)O1)Oc1ccccc1 (stereo partly shown) [Compound 7] | 62 |  |  | IC50 ([1]; Homo sapiens, NCI-H1048, 72 h): 12.1 µM; IC50 ([2]; 72 h): 9.59 µM; IC50 ([4]; 72 h): 2.46 µM; IC50 ([5]; Homo sapiens, BGC-823, 72 h): 1.61 µM; IC50 ([6]; Homo sapiens, NCI-H446, 72 h): 20.5 µM
CC(C)(C)C(=O)OCOP(=O)(COC[C@@H]1CC(O)[C@H](n2cnc3c(N)nc(S)nc32)O1)OCOC(=O)C(C)(C)C (stereo partly shown) [Compound 19] |  | 0.46 | 0.76 | tumor volume (B16-F10 melanoma cells): about 240 mm^3
CC(C)OC(=O)C(C)NP(=O)(COC[C@@H]1CC(O)[C@H](n2cnc3c(N)nc(F)nc32)O1)Oc1ccccc1 (stereo partly shown) [Compound 20, isopropyl((((5-(6-amino-2-fluoro-9H-purin-9-yl)-4-hydroxytetrahydrofuran-2-yl)methoxy)methyl)(phenoxy)phosphoryl)alanine ester] | 0.12 |  |  | IC50 ([4]; 72 h): 0.94 µM; IC50 ([5]; Homo sapiens, BGC-823, 72 h): 1.37 µM
[N-]=[N+]=N[C@@H]1C(O)[C@H](n2cnc3c(N)ncnc32)O[C@@H]1COP(=O)(O)O (stereo partly shown) [Compound 25, (5-(6-amino-9H-purine-9-yl)-3-azide-4-hydroxytetrahydrofuran-2-yl)dihydromethyl phosphate] | 12 | 47.6 | 58.5 | 
CC(C)OC(=O)C(C)NP(=O)(COC[C@H]1O[C@@H](n2cnc3c(N)ncnc32)C(O)[C@H]1N=[N+]=[N-])Oc1ccccc1 (stereo partly shown) [Compound 27, isopropyl((((5-(6-amino-9H-purine-9-yl)-3-azide-4-hydroxytetrahydrofuran-2-yl)methoxy)methyl)(phenoxy)phosphoryl)alanine ester] |  |  |  | IC50 ([4]; 72 h): 8.42 µM; inhibition of melanoma (B16-F10 melanoma cells; same method as Embodiment 46): the Same Inhibition Effect as a Compound 26; IC50 ([5]; Homo sapiens, BGC-823, 72 h): 10.2 µM
COC(=O)C(C)NP(=O)(Oc1ccccc1)OC1C[C@@H](CO)O[C@H]1n1cnc2c(NC(=O)c3ccncc3)ncnc21 (stereo partly shown) [Compound 34, methyl(((5-(hydroxymethyl)-2-(6-(isonicotinamide)-9H-purin-9-yl)tetrahydrofuran-3-yl)oxy)(phenoxy)phosphoryl)alanine salt] |  | 19.4 | 24.2 | tumor volume (B16-F10 melanoma cells): about 240 mm^3
Nc1nc(F)nc2c1ncn2C1OC(COC2CC(CO)C(O)C2O)CC1O (stereo not shown) [Compound 36, 3-((5-(6-amino-2-fluoro-9H-purin-9-yl)-4-hydroxytetrahydrofuran-2-yl)methoxy)-5-(hydroxymethyl)cyclopentane-1,2-diol] | 0.02 | 103 | 90.2 | 
CC(C)(C)C(=O)OCOP(=O)(COC[C@]1(N=[N+]=[N-])CC(O)[C@H](n2cnc3c(N)ncnc32)O1)OCOC(=O)C(C)(C)C (stereo partly shown) [Compound 37] | 0.17 | 64.2 | 56.1 | 
CC(C)Nc1nc2c(N)ncnc2n1[C@@H]1O[C@H](COP(=O)(O)O)CC1O (stereo partly shown) [Compound 39, (5-(6-amino-8-(isopropylamino)-9H-purin-9-yl)-4-hydroxytetrahydrofuran-2-yl)dihydromethyl phosphate] | 28 | 187 | 167 | 
(5-(2-((E)-2-bromocarbonyl)-6-(isonicotinamide)-9H-purin-9-yl)-4-hydroxytetrahydrofuran-2-yl)dihydromethyl phosphate [Compound 35] | 0.025 | 69.4 |  | IC50 ([1]; MTT, 72 hours, H1048): 32.6 µM; IC50 ([2]; MTT, 72 hours, H69): 21.5 µM; IC50 ([5]; MTT, 72 hours, BGC-823): 71 µM; IC50 ([6]; MTT, 72 hours, H446): 21.4 µM; killing effect on the three lines of cells in vitro ([6]; stated in words for all three lines H1048, H446 and H69, MTT): strong killing effect
